# Source: ChEMBL document CHEMBL4196079, “Molecular interaction of novel benzothiazolyl triazolium analogues with calf thymus DNA and HSA-their biological investigation as potent antimicrobial agents” (Eur J Med Chem, 2018)
# Legend:
# Staphylococcus aureus [1] = assay: Antibacterial activity against Staphylococcus aureus ATCC 25923 after 24 hrs by NCCLS micro broth dilution method; assay type: functional; details: ATCC 25923, 24 h
# Escherichia coli [2] = assay: Antibacterial activity against Escherichia coli DH52 after 24 hrs by NCCLS micro broth dilution method; assay type: functional; details: DH52, 24 h
# Salmonella typhi = assay: Antibacterial activity against Salmonella typhi after 24 hrs by NCCLS micro broth dilution method; assay type: functional, Salmonella enterica subsp. enterica serovar Typhi; details: Salmonella enterica
# Escherichia coli [3] = assay: Antibacterial activity against Escherichia coli JM109 after 24 hrs by NCCLS micro broth dilution method; assay type: functional; details: JM109, 24 h
# Pseudomonas aeruginosa = assay: Antibacterial activity against Pseudomonas aeruginosa ATCC 27853 after 24 hrs by NCCLS micro broth dilution method; assay type: functional; details: ATCC 27853, 24 h
# Candida albicans = assay: Antifungal activity against Candida albicans ATCC 76615 after 24 hrs by NCCLS micro broth dilution method; assay type: functional; details: ATCC 76615, 24 h
# Shigella dysenteriae = assay: Antibacterial activity against Shigella dysenteriae after 24 hrs by NCCLS micro broth dilution method; assay type: functional
# Bacillus = assay: Antibacterial activity against Bacillus proteus ATCC 13315 after 24 hrs by NCCLS micro broth dilution method; assay type: functional; details: ATCC 13315, 24 h
# Aspergillus flavus = assay: Antifungal activity against Aspergillus flavus after 24 hrs by NCCLS micro broth dilution method; assay type: functional
# Saccharomyces cerevisiae = assay: Antifungal activity against Saccharomyces cerevisiae after 24 hrs by NCCLS micro broth dilution method; assay type: functional
# Bacillus subtilis = assay: Antibacterial activity against Bacillus subtilis ATCC 21216 after 24 hrs by NCCLS micro broth dilution method; assay type: functional; details: ATCC 21216, 24 h
# Staphylococcus aureus [4] = assay: Antibacterial activity against methicillin-resistant Staphylococcus aureus N315 after 24 hrs by NCCLS micro broth dilution method; assay type: functional; details: N315, 24 h
# Pichia norvegensis = assay: Antifungal activity against Candida mycoderma after 24 hrs by NCCLS micro broth dilution method; assay type: functional
# Micrococcus luteus = assay: Antibacterial activity against Micrococcus luteus ATCC 4698 after 24 hrs by micro broth dilution method; assay type: functional; details: ATCC 4698, 24 h
# Cyberlindnera jadinii = assay: Antifungal activity against Candida utilis after 24 hrs by NCCLS micro broth dilution method; assay type: functional; details: Williopsis jadinii
SMILES,MIC (Staphylococcus aureus [1]),MIC (Escherichia coli [2]),MIC (Salmonella typhi),MIC (Escherichia coli [3]),MIC (Pseudomonas aeruginosa),MIC (Candida albicans),MIC (Shigella dysenteriae),MIC (Bacillus),MIC (Aspergillus flavus),MIC (Saccharomyces cerevisiae),MIC (Bacillus subtilis),MIC (Staphylococcus aureus [4]),MIC (Pichia norvegensis),MIC (Micrococcus luteus),MIC (Cyberlindnera jadinii)
Fc1cccc(Cn2cc(COCc3c(-c4ccccc4)nc4sc5ccccc5n34)nn2)c1,128 µg/mL,32 µg/mL,128 µg/mL,16 µg/mL,128 µg/mL,16 µg/mL,128 µg/mL,64 µg/mL,128 µg/mL,32 µg/mL,64 µg/mL,16 µg/mL,8 µg/mL,128 µg/mL,8 µg/mL
Clc1ccc(Cn2cc(COCc3c(-c4ccccc4)nc4sc5ccccc5n34)nn2)cc1,64 µg/mL,64 µg/mL,64 µg/mL,128 µg/mL,128 µg/mL,32 µg/mL,128 µg/mL,64 µg/mL,256 µg/mL,16 µg/mL,128 µg/mL,64 µg/mL,32 µg/mL,64 µg/mL,64 µg/mL
CCOc1ccc2c(c1)sc1nc(-c3ccccc3)c(COCc3cn(Cc4ccc(F)cc4)nn3)n12,128 µg/mL,32 µg/mL,32 µg/mL,64 µg/mL,64 µg/mL,8 µg/mL,16 µg/mL,64 µg/mL,64 µg/mL,32 µg/mL,64 µg/mL,128 µg/mL,8 µg/mL,128 µg/mL,16 µg/mL
OC(Cn1cncn1)(Cn1cncn1)c1ccc(F)cc1F [FLUCONAZOLE],–,–,–,–,–,1 µg/mL,–,–,256 µg/mL,16 µg/mL,–,–,4 µg/mL,–,8 µg/mL
Clc1ccccc1Cn1cc(COCc2c(-c3ccccc3)nc3sc4ccccc4n23)nn1,64 µg/mL,128 µg/mL,64 µg/mL,8 µg/mL,128 µg/mL,16 µg/mL,64 µg/mL,64 µg/mL,128 µg/mL,64 µg/mL,128 µg/mL,64 µg/mL,8 µg/mL,128 µg/mL,64 µg/mL
Clc1ccc(Cn2cc(COCc3c(-c4ccccc4)nc4sc5ccccc5n34)nn2)cc1Cl,64 µg/mL,64 µg/mL,64 µg/mL,64 µg/mL,16 µg/mL,32 µg/mL,32 µg/mL,8 µg/mL,256 µg/mL,64 µg/mL,16 µg/mL,16 µg/mL,32 µg/mL,32 µg/mL,64 µg/mL
CCCCCCCn1cc(COCc2c(-c3ccccc3)nc3sc4ccccc4n23)nn1,128 µg/mL,64 µg/mL,64 µg/mL,128 µg/mL,64 µg/mL,32 µg/mL,128 µg/mL,64 µg/mL,256 µg/mL,32 µg/mL,128 µg/mL,128 µg/mL,32 µg/mL,128 µg/mL,16 µg/mL
CCOc1ccc2c(c1)sc1nc(-c3ccccc3)c(COCc3cn(Cc4ccccc4F)nn3)n12,128 µg/mL,128 µg/mL,128 µg/mL,128 µg/mL,128 µg/mL,32 µg/mL,64 µg/mL,64 µg/mL,128 µg/mL,64 µg/mL,256 µg/mL,128 µg/mL,32 µg/mL,128 µg/mL,16 µg/mL
CCOc1ccc2c(c1)sc1nc(-c3ccccc3)c(COCc3cn(Cc4ccc(Cl)cc4Cl)nn3)n12,64 µg/mL,64 µg/mL,64 µg/mL,64 µg/mL,32 µg/mL,1 µg/mL,32 µg/mL,16 µg/mL,64 µg/mL,32 µg/mL,32 µg/mL,64 µg/mL,4 µg/mL,64 µg/mL,8 µg/mL
CCOc1ccc2c(c1)sc1nc(-c3ccccc3)c(COCc3cn(Cc4ccccc4Cl)nn3)n12,64 µg/mL,128 µg/mL,16 µg/mL,128 µg/mL,64 µg/mL,8 µg/mL,128 µg/mL,512 µg/mL,128 µg/mL,64 µg/mL,128 µg/mL,128 µg/mL,32 µg/mL,128 µg/mL,32 µg/mL
